The record followed here is US9770446B2, “Piperidine urea derivatives” (MERCK PATENT GMBH, priority 2013, dated 2017).

A value given as a limit tells only on which side of the number the result lay.

Experiment [1] addresses T1, GST-tagged Tnks-2 (873-1166 aa) (Homo sapiens, UniProt Q9H2K2).
T1 construct: GST-tagged Tnks-2 (873-1166 aa, prepared in-house); made in house
As to the kind of experiment: TNKS2 activity ELISA (autoparsylation assay). It counts as biochemical. The procedure: (§1) Description of the TNKS1 and TNKS2 ELISA Assay
(§2) Biochemical Activity Testing of TNKS 1 and 2: Activity ELISA (Autoparsylation Assay)
(§3) For analysis of autoparsylation activity of TNKS 1 and 2 an activity ELISA iss performed: In the first step GST tagged TNKS is captured on a Glutathione coated plate. Then the activity assay with biotinylated NAD is performed in the absence/presence of the compounds. During the enzymatic reaction GST tagged TNKS transfers biotinylated ADP-ribose to itself from biotinylated NAD as co-substrate. For the detection streptavidin-HRP conjugate is added that binds to the biotinylated TNKS and is thereby captured to the plates. The amount of biotinylated resp. autoparsylated TNKS is detected with a luminescence substrate for HRP. The level of the luminescence signal correlates directly with the amount of autoparsylated TNKS and therefore with activity of TNKS.
(§4) The activity ELISA is performed in 384 well Glutathione coated microtiter plates (Express capture Glutathione coated plate, Biocat, Heidelberg, Germany). The plates are pre-equilibrated with PBS. Then the plates are incubated with 50 μl 20 ng/well GST-tagged Tnks-1 (1023-1327 aa, prepared in-house), respectively GST-tagged Tnks-2 (873-1166 aa, prepared in-house) in assay buffer (50 mM HEPES, 4 mM Mg-chloride, 0.05% Pluronic F-68, 2 mM DTT, pH 7.7) overnight at 4° C. The plates are washed 3 times with PBS-Tween-20. The wells are blocked by incubation at room temperature for 20 minutes with 50 μl blocking buffer (PBS, 0.05% Tween-20, 0.5% BSA). Afterwards the plates are washed 3 times with PBS-Tween-20. The enzymatic reaction is performed in 50 μl reaction solution (50 mM HEPES, 4 mM Mg-chloride, 0.05% Pluronic F-68, 1.4 mM DTT, 0.5% DMSO, pH 7.7) with 10 μM bio-NAD (Biolog, Life science Inst., Bremen, Germany) as co-substrate in the absence or presence of the test compound (10 dilution concentrations) for 1 hour at 30° C. The reaction is stopped by 3 times washing with PBS-Tween20. For the detection 50 μl of 20 ng/μl Streptavidin, HRP conjugate (MoBiTec, Göttingen, Germany) in PBS/0.05% Tween-20/0.01% BSA are added and the plates are incubated for 30 minutes at room temperature. After three times washing with PBS-Tween-20 50 μl of SuperSignal ELISA Femto Maximum sensitivity substrate solution (ThermoFisherScientific (Pierce), Bonn, Germany) are added. Following a 1 minute incubation at room temperature luminescence signals are measured with an Envision multimode reader (Perkin Elmer LAS Germany GmbH) at 700 nm. The full value used is the inhibitor-free reaction. The pharmacological zero value used is XAV-939 (Tocris) in a final concentration of 5 μM. The inhibitory values (IC50) are determined using either the program Symyx Assay Explorer® or Condosseo® from GeneData.

Another experiment concerns Tankyrase. Nature of the experiment: Cellular inhibition of Tankyrase: Axin2 level in DLD1 cells (Luminex). Type of experiment: cell-based. The following applies: 24 hours, Axin2 increase, read-out: EC50 [M] TNKS cellular assay. The procedure: Measurement of Cellular Inhibition of Tankyrase
Since Tankyrases have been described to modulate cellular level of Axin2 (Huang et al., 2009; Nature) the increase of Axin2 level is used as read-out for determination of cellular inhibition of Tankyrases in a Luminex based assay.
Cells of the colon carcinoma cell line DLD1 are plated in 96 well plates with 1.5×10^4 cells per well. Next day, cells are treated with a serial dilution of test compound in seven steps as triplicates with a final DMSO concentration of 0.3%. After 24 hours, cells are lysed in lysis buffer (20 mM Tris/HCl pH 8.0, 150 mM NaCl, 1% NP40, 10% Glycerol) and lysates are cleared by centrifugation through a 96 well filter plate (0.65 μm). Axin2 protein is isolated from cell lysates by incubation with a monoclonal anti-Axin2 antibody (R&D Systems #MAB6078) that is bound to fluorescent carboxybeads. Then, bound Axin2 is specifically detected with a polyclonal anti-Axin2 antibody (Cell Signaling #2151) and an appropriate PE-fluorescent secondary antibody. The amount of isolated Axin2 protein is determined in a Luminex^200 machine (Luminex Corporation) according to the manufacturer's instruction by counting 100 events per well. Inhibition of Tankyrase by test compounds results in higher levels of Axin2 which directly correlates with an increase of detectable fluorescence. As controls cells are treated with solvent alone (neutral control) and with a Tankyrase reference inhibitor IWR-2 (3E-06 M) which refers as control for maximum increase of Axin2. For analysis, the obtained data are normalized against the untreated solvent control and fitted for determination of the EC50 values using the Assay Explorer software (Accelrys).

For the next experiment, the target named is T2, His-tagged Parp-1 (Homo sapiens, UniProt P09874).
T2 construct: purchased Enzo Life Sciences GmbH, Lörrach, Germany
Nature of the experiment: PARP-1 autoparsylation HTRF assay. Type of experiment: biochemical. From the text: Description of the PARP1 Assay
Biochemical Activity Testing of PARP-1: Autoparsylation Assay
The autoparsylation assay is run in two steps: the enzymatic reaction in which His-tagged Parp-1 transfers biotinylated ADP-ribose/ADP-ribose to itself from biotinylated NAD/NAD as co-substrate and the detection reaction where a time resolved FRET between cryptate labelled anti-His antibody bound to the His tag of the enzyme and Xlent® labelled-streptavidin bound the biotin-parsylation residue is analysed. The autoparsylation activity is detectable directly via the increase in HTRF signal.
The autoparsylation assay is performed as 384-well HTRF® (Cisbio, Codolet, France) assay format in Greiner low volume nb 384-well microtiter plates. 35 nM His-tagged Parp-1 (human, recombinant, Enzo Life Sciences GmbH, Lörrach, Germany) and a mixture of 125 nM bio-NAD (Biolog, Life science Inst., Bremen, Germany) and 800 nM NAD as co-substrate are incubated in a total volume of 6 μl (100 mM Tris/HCl, 4 mM Mg-chloride, 0.01% IGEPAL® CA630, 1 mM DTT, 0.5% DMSO, pH 8, 13 ng/μl activated DNA (BPS Bioscience, San Diego, US)) in the absence or presence of the test compound (10 dilution concentrations) for 150 min at 23° C. The reaction is stopped by the addition of 4 μl of the Stop/detection solution (70 nM SA-Xlent® (Cisbio, Codolet, France), 2.5 nM Anti-His-K® (Eu-labelled anti-His, Cisbio, Codolet, France) in 50 mM HEPES, 400 mM KF, 0.1% BSA, 20 mM EDTA, pH 7.0). After 1 h incubation at room temperature the HTRF iss measured with an Envision multimode reader (Perkin Elmer LAS Germany GmbH) at excitation wavelength 340 nm (laser mode) and emission wavelengths 615 nm and 665 nm. The ratio of the emission signals is determined. The full value used is the inhibitor-free reaction. The pharmacological zero value used is Olaparib (LClabs, Woburn, US) in a final concentration of 1 μM. The inhibitory values (IC50) are determined using either the program Symyx Assay Explorer® or Condosseo® from GeneData.

In experiment [2] the target is T3, GST-tagged Tnks-1 (1023-1327 aa) (Homo sapiens, UniProt O95271).
T3 construct: GST-tagged Tnks-1 (1023-1327 aa, prepared in-house); made in house
As to the kind of experiment: TNKS1 activity ELISA (autoparsylation assay). Type of experiment: biochemical. The procedure:
as §1, §2, §3, §4
(An ELISA detects its analyte on a solid surface through an enzyme-linked reagent.)

Experiment [3] addresses T4, GST-tagged Tankyrase-2 (873-1166 aa) (Homo sapiens, UniProt Q9H2K2).
T4 construct: GST-tagged Tankyrase-2 (873-1166 aa)
Nature of the experiment: Tankyrase 2 autoparsylation HTRF enzyme assay. It counts as biochemical. Particulars: read-out: IC50 TNKS2 enzyme assay. The procedure:
(§5) Biochemical activity testing of Tankyrase 1 and 2: Autoparsylation assay
(§6) The autoparsylation assay is run in two steps: the enzymatic reaction in which GST-tagged Tankyrase-1, resp Tankyrase-2 transferred biotinylated ADP-ribose to itself from biotinylated NAD as co-substrate and the detection reaction where a time resolved FRET between cryptate labelled anti-GST bound to the GST tag of the enzyme and Xlent® labelled-streptavidin bound the biotin-parsylation residue is analysed. The autoparsylation activity was detectable directly via the increase in HTRF signal.
(§7) The autoparsylation assay is performed as 384-well HTRF® (Cisbio, Codolet, France) assay format in Greiner low volume nb 384-well microtiter plates and is used for high throughput screen. 250 nM GST-tagged Tankyrase-1 (1023-1327 aa), respectively about 250 nM GST-tagged Tankyrase-2 (873-1166 aa) and 5 μM bio-NAD (Biolog, Life science Inst., Bremen, Germany) as co-substrate are incubated in a total volume of 5 μl (50 mM HEPES, 4 mM Mg-chloride, 0.05% Pluronic F-68, 1.4 mM DTT, 0.5% DMSO, pH 7.7) in the absence or presence of the test compound (10 dilution concentrations) for 90 min at 30° C. The reaction is stopped by the addition of 1 μl 50 mM EDTA solution. 2 μl of the detection solution (1.6 μM SA-Xlent® (Cisbio, Codolet, France), 7.4 nM Anti-GST-K® (Eu-labelled anti-GST, Cisbio, Codolet, France) in 50 mM HEPES, 800 mM KF, 0.1% BSA, 20 mM EDTA, 0.1% CHAPS, pH 7.0) are added. After 1 h incubation at room temperature the HTRF is measured with an Envision multimode reader (Perkin Elmer LAS Germany GmbH) at excitation wavelength 340 nm (laser mode) and emission wavelengths 615 nm and 665 nm. The ratio of the emission signals is determined. The full value used is the inhibitor-free reaction. The pharmacological zero value used is XAV-939 (Tocris) in a final concentration of 5 μM. The inhibitory values (IC50) are determined using either the program Symyx Assay Explorer® or Condosseo® from GeneData.
(In general: In TR-FRET formats the signal depends on donor and acceptor labels being close together.)

Experiment [4] concerns the target T5, GST-tagged Tankyrase-1 (1023-1327 aa) (Homo sapiens, UniProt O95271).
T5 construct: GST-tagged Tankyrase-1 (1023-1327 aa)
Nature of the experiment: Tankyrase 1 autoparsylation HTRF enzyme assay. Type of experiment: biochemical. The following applies: read-out: IC50 TNKS1 enzyme assay. The procedure: as §5, §6, §7

T1 sequence (Q9H2K2 873-1166): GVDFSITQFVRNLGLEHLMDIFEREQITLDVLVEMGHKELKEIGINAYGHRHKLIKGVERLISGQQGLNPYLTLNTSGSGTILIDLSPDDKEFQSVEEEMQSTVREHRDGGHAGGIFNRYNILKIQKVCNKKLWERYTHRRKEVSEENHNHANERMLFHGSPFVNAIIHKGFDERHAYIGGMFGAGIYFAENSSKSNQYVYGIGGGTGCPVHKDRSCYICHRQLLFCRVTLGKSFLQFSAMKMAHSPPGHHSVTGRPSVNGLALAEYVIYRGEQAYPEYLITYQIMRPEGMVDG
T4 sequence (Q9H2K2 873-1166): as above
T2 sequence (P09874 whole entry): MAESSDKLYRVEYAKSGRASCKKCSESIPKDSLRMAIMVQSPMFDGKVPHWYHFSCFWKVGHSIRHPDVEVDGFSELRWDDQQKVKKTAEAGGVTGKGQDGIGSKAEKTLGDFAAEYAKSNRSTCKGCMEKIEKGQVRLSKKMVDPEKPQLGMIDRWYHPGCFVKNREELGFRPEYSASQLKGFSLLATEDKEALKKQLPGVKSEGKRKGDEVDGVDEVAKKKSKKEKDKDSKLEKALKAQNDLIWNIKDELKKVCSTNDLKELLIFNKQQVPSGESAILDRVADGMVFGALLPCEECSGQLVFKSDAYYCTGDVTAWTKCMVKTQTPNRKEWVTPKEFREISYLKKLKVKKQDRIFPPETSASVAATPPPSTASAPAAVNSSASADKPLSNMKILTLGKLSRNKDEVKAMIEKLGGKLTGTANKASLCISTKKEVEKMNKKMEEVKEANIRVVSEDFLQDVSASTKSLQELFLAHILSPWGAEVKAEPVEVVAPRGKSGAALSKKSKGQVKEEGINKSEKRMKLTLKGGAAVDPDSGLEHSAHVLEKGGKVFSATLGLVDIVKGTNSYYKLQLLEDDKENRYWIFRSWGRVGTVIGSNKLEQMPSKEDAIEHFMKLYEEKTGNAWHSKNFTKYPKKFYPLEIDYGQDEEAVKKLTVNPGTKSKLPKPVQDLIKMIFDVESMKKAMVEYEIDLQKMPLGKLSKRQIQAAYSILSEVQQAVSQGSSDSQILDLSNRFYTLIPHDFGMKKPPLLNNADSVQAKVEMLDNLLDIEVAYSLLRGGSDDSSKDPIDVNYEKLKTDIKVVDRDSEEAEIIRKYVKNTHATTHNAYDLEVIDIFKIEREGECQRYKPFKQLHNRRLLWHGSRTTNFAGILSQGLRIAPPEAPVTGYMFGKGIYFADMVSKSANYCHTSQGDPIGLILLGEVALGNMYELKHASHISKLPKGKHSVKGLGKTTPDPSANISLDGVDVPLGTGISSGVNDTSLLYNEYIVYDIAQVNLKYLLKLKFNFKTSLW
T5 sequence (O95271 1023-1327): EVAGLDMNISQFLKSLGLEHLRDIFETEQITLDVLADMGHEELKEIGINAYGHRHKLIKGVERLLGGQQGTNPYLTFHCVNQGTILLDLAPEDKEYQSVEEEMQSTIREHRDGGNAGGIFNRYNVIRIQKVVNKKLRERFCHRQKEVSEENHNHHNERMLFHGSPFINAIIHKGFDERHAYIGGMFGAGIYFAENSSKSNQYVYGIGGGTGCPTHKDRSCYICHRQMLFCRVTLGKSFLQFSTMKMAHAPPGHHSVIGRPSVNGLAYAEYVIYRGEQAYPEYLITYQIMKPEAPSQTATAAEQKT
T3 sequence (O95271 1023-1327): as above

By IC50 is commonly meant the concentration that gives 50% inhibition. By EC50 is commonly meant the concentration at which the effect is half-maximal. Consider `COCCn1cc(-c2ccc(C(=O)C3CCN(C(=O)N(C)c4ccc(OC)cc4)CC3)cc2)cn1` [Compound A30, 4-{4-[1-(2-methoxy-ethyl)-1H-pyrazol-4-yl]-benzoyl}-piperidine-1-carboxylic acid (4-methoxy-phenyl)-methyl-amide], for which the results for the IC50 (in experiment [1]; against His-tagged Parp-1; in experiment [2]) were less than 300 nM, 3000 to 50000 nM and less than 300 nM, respectively. The EC50 in the experiment on Tankyrase is less than 3e-07 M.

Turning to `COCCn1cc(-c2ccc(N(C)C(=O)N3CCC(C(=O)c4ccc(OC)cc4)CC3)cc2)cn1` [Compound A31, 4-(4-methoxy-benzoyl)-piperidine-1-carboxylic acid {4-[1-(2-methoxy-ethyl)-1H-pyrazol-4-yl]-phenyl}-methyl-amide], the IC50 in experiment [1] was less than 300 nM; against His-tagged Parp-1, 3000 to 50000 nM; in experiment [2], less than 300 nM. In addition, in the experiment on Tankyrase, the EC50 was less than 3e-07 M.

Take `COCCn1cc(-c2ccc(C(=O)C3CCN(C(=O)N(C)c4ccc(-c5cnn(CCOC)c5)cc4)CC3)cc2)cn1` [Compound A32, 4-{4-[1-(2-methoxy-ethyl)-1H-pyrazol-4-yl]-benzoyl}-piperidine-1-carboxylic acid {4-[1-(2-methoxy-ethyl)-1H-pyrazol-4-yl]-phenyl}-methyl-amide]: the figures for the concentration for half-maximal inhibition (IC50) (in experiment [1]; against His-tagged Parp-1; in experiment [2]) were less than 300 nM, 3000 to 50000 nM and less than 300 nM, respectively. Further, in the experiment with Tankyrase, the EC50 was less than 3e-07 M.

Turning to `COc1ccc(N(C)C(=O)N2CCC(C(=O)c3ccc(C)cc3)CC2)cn1` [Compound A46, N-(6-methoxy-3-pyridyl)-N-methyl-4-(4-methylbenzoyl)piperidine-1-carboxamide], the IC50 is 300 to 3000 nM in experiment [3], less than 300 nM in experiment [1], less than 300 nM in experiment [2] and 300 to 3000 nM in experiment [4]. Moreover, the EC50 in the experiment on Tankyrase lay in the range of 3e-07 to 3e-06 M.

As for `COc1cccc(C(=O)C2CCN(C(=O)N(C)c3ccc(OC)nc3)CC2)c1` [Compound A47, 4-(3-methoxybenzoyl)-N-(6-methoxy-3-pyridyl)-N-methyl-piperidine-1-carboxamide], the IC50 was 300 to 3000 nM in experiment [3], less than 300 nM in experiment [1], less than 300 nM in experiment [2] and 300 to 3000 nM in experiment [4]. The EC50 with Tankyrase is 3e-07 to 3e-06 M.

As for `COc1ccc(C(=O)C2CCN(C(=O)N(C)c3ccc(OC)nc3)CC2)cc1` [Compound A49, 4-(4-methoxybenzoyl)-N-(6-methoxy-3-pyridyl)-N-methyl-piperidine-1-carboxamide], the IC50 is 300 to 3000 nM in experiment [3], less than 300 nM in experiment [1], less than 300 nM in experiment [2] and less than 300 nM in experiment [4]. The EC50 in the experiment with Tankyrase is less than 3e-07 M.

`COc1ccc(N(C)C(=O)N2CCC(C(=O)c3cccc(F)c3)CC2)cn1` [Compound A50, 4-(3-fluorobenzoyl)-N-(6-methoxy-3-pyridyl)-N-methyl-piperidine-1-carboxamide]: the IC50 in experiment [3] was 300 to 3000 nM; in experiment [1] it was less than 300 nM; in experiment [2] it was less than 300 nM; in experiment [4] it was 300 to 3000 nM. For the same molecule, the EC50 in the experiment on Tankyrase was in the range of 3e-07 to 3e-06 M.

`COc1ccc(N(C)C(=O)N2CCC(C(=O)c3ccc(F)cc3)CC2)cn1` [Compound A51, 4-(4-fluorobenzoyl)-N-(6-methoxy-3-pyridyl)-N-methyl-piperidine-1-carboxamide]: the IC50 in experiment [3] is 300 to 3000 nM; in experiment [1], less than 300 nM; in experiment [2] it was less than 300 nM; in experiment [4], 300 to 3000 nM. For the same molecule, the EC50 in the experiment on Tankyrase lay in the range of 3e-07 to 3e-06 M.
